In patent US7273723B2, “Antibiotic-based gene regulation system” (priority 2001, dated 2007):

Experiments:
[1] = test system: ET1 (MphR(A)-VP16) / PETR promoters; experiment: SEAP reporter assay, CHO lines stably expressing ET1 (CHO-ET11, CHO-ET12) transiently transfected with PETR-SEAP plasmids; assay type: cell-based; conditions: for SEAP production [%]: CHO-ET11 transiently transfected with pWW38, 48 h, antibiotic 2 μg/ml, no macrolide = 100
Description: (§1) Chinese hamster ovary cells (CHO-K1, ATCC: CCL 61), and HeLa cells (ATCC: CRL-7923) as well as stable cell lines derived thereof were cultured as described before (Fussenegger et al., 1998, Nat. Biotechnol. 16,468-472) in the presence of appropriate antibiotics: G418 400 μg/ml; zeocin 100 μg/ml. Optimized CaPO4 protocols were used for high efficiency transient transfection of all cell lines (Fussenegger et al., 1998. Nat. Biotechnol. 16: 468-472). Transiently transfected cells were routinely analyzed after 48 h for CFP or SEAP expression using fluorescence microscopy and p-nitrophenolphosphate-based light absorbance timecourse, respectively, as described before (Fussenegger et al., 1998, Nat. Biotechnol. 16, 468-472; Berger et al., 1988, Gene 66, 1-10 b). For construction of stable CHO-ET1 and CHO-Triplet42 cell lines, CHO-Ki and CHO-TWIN1108 (Disclosed in PCT application no. 00/65080) were cotransfected with pWW35 and pZeoSV2 (invitrogen). CHO-ET11-SEAP was constructed by cotransfection of pWW38 and pSV2neo (Clontech) into CHO-ET11. The mixed populations were cloned using FACS-mediated single-cell-sorting (FACStar^Plus; Beckton Dickinson). For assessment of dose-response characteristics of PETR3-regulated gene expression, CHO-ET11-SEAP were cultured at cell densities of 50,000/ml for 48 h at various EM concentrations.
(§2) Other antibiotics were eluted from antibiotic test discs (Mast Diagnostica GmbH, Reinfeld, Germany, or bioMérieux, Geneva Switzerland) in cell culture medium at 37° C. for 12 h to reach a final concentration of 30 μg/ml. All macrolide antibiotics were used at a 2 μg/ml concentration unless indicated otherwise.
Two representative clones, CHO-ET11 and CHO-ET12, were chosen at random among ET1-expressing CHO cell clones stably transfected with a constitutive ET1 expression construct (pWW35).
Access to alternative effective antibiotics would expand the spectrum of regulating agents available for future use in human cell and gene therapy. Accordingly, several commercially available antibiotic sources were tested for their potential to regulate the ET1/PETR3 system as shown below in Table 3.
The effect of the different spacer length in promoters PETR2 and PETR7-PETR11 were examined by transfecting the corresponding plasmids (pWW37, pBP10-pBP14) into a CHO cell line stably transfected with the transactivator ET1 (MphR(A)-VP 16, see example 1).

[2] = test system: PIT / pristinamycin-responsive promoter PPIR; experiment: SEAP assay in CHO-Triplet42 transfected with PPIR-SEAP (pMF172); assay type: cell-based; conditions: for SEAP activity [U/L]: CHO-Triplet42 + pMF172 (PPIR), antibiotic 2 μg/ml, 48 h
Description: as §1, §2
(§3) The regulation performance of the EM-based regulation system was compared directly with the widely used TET- and PIP responsive expression concepts. To this end, we have constructed a stable CHO-K1-derived cell line expressing ET1, PIT and tTA (CHO-Triplet42). […] CHO-Triplet42 was transfected with either isogenic (i) PETR3-(pWW38), (ii) a PPIR-(pristinamycin-responsive promoter, pMF172, Fussenegger et al., 2000. supra.), or (iii) a PhCMV*-1-(tetracycline-responsive promoter, pMF111, Fussenegger et al., 2000. supra) driven SEAP expression vector to assess the individual regulation performance of the three antibiotic-responsive gene regulation systems in CHO cells (Table 5).
(§4) To analyze the relative regulatory characteristics, we evaluated induction factors (IF; ratio of maximal expression level to antibiotic-repressed expression level).
(§5) These repressive effects are still in a range which is tolerable for use in potential medical applications.

[3] = biological target: T1, tTA / tetracycline-responsive promoter PhCMV*-1 (Escherichia coli, UniProt P04483); experiment: SEAP assay in CHO-Triplet42 transfected with PhCMV*-1-SEAP (pMF111); assay type: cell-based; conditions: antibiotic 2 μg/ml
T1 construct: expressed in transfected cells; host or cells: CHO-Triplet42 (from CHO-TWIN1108)
Description: as §1, §2

[4] = test system: ET1 / erythromycin-responsive promoter PETR3; experiment: SEAP assay in CHO-Triplet42 transfected with PETR3-SEAP (pWW38); assay type: cell-based; conditions: antibiotic 2 μg/ml; for SEAP activity [U/L]: CHO-Triplet42 + PWW38 (PETR3), 48 h
Description: as §1, §2, §3, §4, §5

[5] = saliva, sputum, lung tissue, epithelial lining fluid, alveolar macrophages, neutrophils, tonsils, nasal mucosa, middle ear fluid; cited from earlier work

With `CC[C@H]1OC(=O)C[C@@H](O)[C@H](C)[C@@H](O[C@@H]2O[C@H](C)[C@@H](O[C@H]3C[C@@](C)(O)[C@@H](O)[C@H](C)O3)[C@H](N(C)C)[C@H]2O)[C@@H](CC=O)C[C@@H](C)C(=O)/C=C/C(C)=C/[C@@H]1CO[C@@H]1O[C@H](C)[C@@H](O)[C@@H](OC)[C@H]1OC` [Tylosin] the “SEAP production [%]” value [1] was 30.9 ± 3.2%.

In the case of pristinamycin I [PI], the “SEAP activity [U/L]” value [2] is reported as 2.2 ± 0.1 U/L, the Induction factor ([2]; Pip-system in CHO-Triplet42) is reported as “three-fold” and the “SEAP activity [U/L]” value ([3]; CHO-Triplet42 + pMF111 (PhCMV*-1), 48 h) is reported as 87.9 ± 7.0 U/L. The “Antibiotic crossregulation of PhCMV*-1” value ([3]; CHO-Triplet42 + pMF111) was “no significant interference”, the “SEAP activity [U/L]” value [4] was 71.9 ± 7.0 U/L and the “Antibiotic crossregulation of PETR3” value ([4]; CHO-Triplet42 + pWW38) was “no significant interference”.

With `CC[C@H]1OC(=O)[C@H](C)[C@@H](O[C@H]2C[C@@](C)(OC)[C@@H](O)[C@H](C)O2)[C@H](C)[C@@H](O[C@@H]2O[C@H](C)C[C@H](N(C)C)[C@H]2O)[C@](C)(O)C[C@@H](C)CN(C)[C@H](C)[C@@H](O)[C@]1(C)O` [Azithromycin] the “SEAP production [%]” value [1] was 57.6 ± 4.4%.

For `CO/N=C(\C(=O)N[C@@H]1C(=O)N2C(C(=O)O)=C(CSc3nc(=O)c(=O)[nH]n3C)CS[C@H]12)c1csc(N)n1` [Ceftriaxone], the “SEAP production [%]” value [1] was 28.8 ± 1.8%.

With `CN(C)[C@@H]1C(O)=C(C(N)=O)C(=O)[C@@]2(O)C(O)=C3C(=O)c4c(O)cccc4[C@@](C)(O)[C@H]3C[C@@H]12` [Tet, tetracycline] the “SEAP activity [U/L]” value [2] was 4.6 ± 0.4 U/L and the “SEAP activity [U/L]” value [4] was 55.0 ± 8.3 U/L.

For `CC[C@H]1OC(=O)[C@H](C)[C@@H](O[C@H]2C[C@@](C)(OC)[C@@H](O)[C@H](C)O2)[C@H](C)[C@@H](O[C@@H]2O[C@H](C)C[C@H](N(C)C)[C@H]2O)[C@](C)(OC)C[C@@H](C)C(=O)[C@H](C)[C@@H](O)[C@]1(C)O` [Clarithromycin], the “Induction factor (ratio of SEAP activity without antibiotic to SEAP activity with antibiotic)” value ([1]; CHO-ET11 + pWW38, 2 μg/ml) is listed as 23, the “SEAP production [%]” value [1] is listed as 4.3 ± 0.3% and the “diffusion into tissues and fluids” value [5] is listed as “extensive diffusion”.

For `CC[C@H]1OC(=O)[C@H](C)[C@@H](O[C@H]2C[C@@](C)(OC)[C@@H](O)[C@H](C)O2)[C@H](C)[C@@H](O[C@@H]2O[C@H](C)C[C@H](N(C)C)[C@H]2O)[C@](C)(O)C[C@@H](C)/C(=N\OCOCCOC)[C@H](C)[C@@H](O)[C@]1(C)O` [Roxithromycin], the “SEAP production [%]” value [1] was 18.1 ± 0.9%.
